Measured values taken from patent EP0103381B1, “Substituted anthra(1,9-cd)pyrazol-6(2H)-ones” (WARNER-LAMBERT COMPANY, priority 1982, dated 1984).
Where a name gives a salt, the structure may show the parent alone. Read-outs that look alike come from different tables or passages of the source.

What was measured:
[1] = tested on: Penicillium avellaneum; test: agar plate paper-disc inhibition zone screening; format: cell-based; conditions: Hamigera avellanea, read-out: Inhibition Zone Diameter mm (Dose mg/ml) P. Avellaneum; for zone of inhibition at 3000 µg/mL: Dose 3.0 mg/ml; for zone of inhibition at 1000 µg/mL: Dose 1.0 mg/ml
Method in brief: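 Mycelia and spores from a six-day 28°C agar culture, suspended in saline with 0.05% Tween 80 at 20% transmittancy, were seeded into molten agar trays. Compounds at 3,000, 1,000, 500, 100 and 10 mcg/ml (solvent <10%) were applied on 12.7 mm paper discs. After at least 20-24 h incubation, inhibition zone diameter was measured in mm.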

[2] = tested on: Aerobacter aerogenes; test: agar plate paper-disc inhibition zone screening; format: cell-based; conditions: Klebsiella aerogenes, read-out: Inhibition Zone Diameter mm (Dose mg/ml) A. Aerogenes; for zone of inhibition at 100 µg/mL: Dose 0.1 mg/ml; for zone of inhibition at 500 µg/mL: Dose 0.5 mg/ml
Method in brief: (§1)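 Read-out: diameter (mm) of the inhibition zone around 12.7 mm paper discs after overnight (18-20 h) incubation at 37°C. Discs carried compound at 3,000-10 mcg/ml in alcohol, DMSO or DMF, final solvent <10%. Seeded agar trays used saline-suspended cells adjusted to 20-35% transmittancy.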

[3] = tested on: Bacillus subtilis; test: agar plate paper-disc inhibition zone screening; format: cell-based; conditions: read-out: Inhibition Zone Diameter mm (Dose mg/ml) B. Subtilis; for zone of inhibition at 1000 µg/mL: Dose 1.0 mg/ml; for zone of inhibition at 100 µg/mL: Dose 0.1 mg/ml; for zone of inhibition at 3000 µg/mL: Dose 3.0 mg/ml
Method in brief: as §1

[4] = tested on: Streptococcus faecalis; test: agar plate paper-disc inhibition zone screening; format: cell-based; conditions: Enterococcus faecalis, read-out: Inhibition Zone Diameter mm (Dose mg/ml) S. Faecalis; for zone of inhibition at 1000 µg/mL: Dose 1.0 mg/ml; for zone of inhibition at 500 µg/mL: Dose 0.5 mg/ml; for zone of inhibition at 3000 µg/mL: Dose 3.0 mg/ml
Method in brief: as §1

[5] = tested on: Escherichia coli; test: agar plate paper-disc inhibition zone screening; format: cell-based; conditions: read-out: Inhibition Zone Diameter mm (Dose mg/ml) E. Coli; for zone of inhibition at 3000 µg/mL: Dose 3.0 mg/ml; for zone of inhibition at 1000 µg/mL: Dose 1.0 mg/ml; for zone of inhibition at 500 µg/mL: Dose 0.5 mg/ml
Method in brief: as §1

[6] = tested on: HCT-8 (human colon adenocarcinoma) cells; test: in vitro activity against human colon adenocarcinoma (HCT-8), cell count; format: cell-based
Experimental: HCT-8 (human colon adenocarcinoma) cells are trypsinized using Trypsin-EDTA. A single cell suspension is achieved by passing the cells through a 26 gauge needle with a 20 cc syringe. A cell suspension is prepared using RPMI 1640 growth medium (available from Gibco Laboratories) +10% fetal calf serum +50 µg/ml garamycin with a cell concentration of approximately 30,000 cells/ml. The cell suspension is dispensed in Linbro 24-well plates; 1 ml/well. The plates are incubated for approximately 48 hrs at 37°C in a 5% C02 atmosphere. At this time test compounds are added in the appropriate concentration. Five µl of the 200 µg/ml stock solution is added to each well in a primary test. Ten pl of the appropriate dilution is added to each well for a titration test. The plates are reincubated an additional 60-65 hrs at 37°C in a 5% C02 atmosphere. The test is read by lysing the cells using a mix of cationic surfactant, glacial acetic acid and sodium chloride. […] of the lysed cell suspension from each well is added to 8 ml of diluent. Each sample is read with a Coulter counter (ZBI model). The activity of each sample is measured as a percentage of the controls and the data is reported as ID50, that is the molar quantity of drug required to kill 50% of the tumor cells.

[7] = tested on: lymphocytic leukemia P388; test: in vivo lymphocytic leukemia P388 test; set-up: species or system mice; conditions: Mus musculus, P388, ip, 720 h, two single doses four days apart, read-out: T/C × 100 (Percent); for response vs control in vivo at 3.12 mg/kg: P388, Dose 3.12 mg/kg intraperitoneally; for response vs control in vivo at 12.5 mg/kg: P388, Dose 12.5 mg/kg intraperitoneally; for response vs control in vivo at 25 mg/kg: P388, Dose 25 mg/kg intraperitoneally; for response vs control in vivo at 50 mg/kg: P388, Dose 50 mg/kg intraperitoneally
Method in brief: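 Efficacy was judged from the treated/control survival-time ratio over 30 days (T/C×100 >125% as criterion). Mice (CD2F, 6–7/group) received i.p. P388 ascites cells, then compound i.p. at varied doses twice, four days apart.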

[8] = Homo sapiens, HCT-8 cells, 60-65 hrs with compound, molar quantity of drug required to kill 50% of the tumor cells, read-out: ID50 Molar
[9] = HCT-8 human colon adenocarcinoma cells, 60-65 hrs incubation with compound, Coulter counter cell count as percentage of controls, read-out: ID50 (the source's name)

## CCN(CC)CCCNc1ccc2c3c(nn2CCN(CC)CC)-c2ccccc2C(=O)c13 [Example 5, 2-[2-(Diethylamino)ethyl]-5-[[3-(diethylamino)propyl]amino]anthra[1,9-cd]pyrazol-6(2H)-one]
[1]
  zone of inhibition at 3000 µg/mL: 15 mm
[2]
  zone of inhibition at 100 µg/mL: 20 mm
[3]
  zone of inhibition at 1000 µg/mL: 25 mm
[4]
  zone of inhibition at 1000 µg/mL: 14 mm
[5]
  zone of inhibition at 3000 µg/mL: 15 mm
[6]; [8]
  IC50: 180 nM

## CCN(CC)CCn1nc2c3c(c(NCCN)ccc31)C(=O)c1ccccc1-2 [Example 3, 5-[(2-Aminoethyl)amino]-2-[2-(diethylamino)ethyl]anthra[1,9-cd]pyrazol-6(2H)-one]
[1]
  zone of inhibition at 3000 µg/mL: 16 mm
[2]
  zone of inhibition at 500 µg/mL: 14 mm
[3]
  zone of inhibition at 100 µg/mL: 15 mm
[4]
  zone of inhibition at 500 µg/mL: 17 mm
[5]
  zone of inhibition at 1000 µg/mL: 14 mm
[6]; [8]
  IC50: 52 nM

## CCN(CC)CCn1nc2c3c(c(NCCN4CCNCC4)ccc31)C(=O)c1ccccc1-2 [Example 9, 2-(2-(Diethylamino)ethyl]-5-[[2-(1-piperazinyl)ethyl]amino]anthra[1,9-cd]pyrazol-6(2H)-one]
[1]
  zone of inhibition at 1000 µg/mL: 0 mm
[2]
  zone of inhibition at 100 µg/mL: 19 mm
[3]
  zone of inhibition at 1000 µg/mL: 24 mm
[4]
  zone of inhibition at 3000 µg/mL: 14 mm
[5]
  zone of inhibition at 3000 µg/mL: 0 mm
[6]; [8]
  IC50: 380 nM

## NCCn1nc2c3c(c(NCCNCCO)ccc31)C(=O)c1c(O)ccc(O)c1-2 [Example 71, 2-(2-Aminoethyl)-7,10-dihydroxy-5-[[2-[(2-hydroxyethyl)amino]ethyl]amino]anthra[1,9-cd]pyrazol-6(2H)-one]
[6]; [9]
  IC50: 1700 nM
[7]; P388, Dose 1.56 mg/kg intraperitoneally
  response vs control in vivo at 1.56 mg/kg: 153%
[7]
  response vs control in vivo at 3.12 mg/kg: 160%
  response vs control in vivo at 12.5 mg/kg: 182%
  response vs control in vivo at 25 mg/kg: 257%
[7]; P388, Dose 6.25 mg/kg intraperitoneally
  response vs control in vivo at 6.25 mg/kg: 163%

## CCN(CC)CCn1nc2c3c(cccc31)C(=O)c1c(NCCNCCO)cccc1-2 [Example 79, 2-[2-(Diethylamino)ethyl]-7-[[2-[(2-hydroxyethyl)amino]ethyl]amino]anthra[1,9-cd]pyrazol-6(2H)-one]
[1]
  zone of inhibition at 3000 µg/mL: 15 mm
[2]
  zone of inhibition at 500 µg/mL: 18 mm
[3]
  zone of inhibition at 100 µg/mL: 20 mm
[4]
  zone of inhibition at 500 µg/mL: 16 mm
[5]
  zone of inhibition at 500 µg/mL: 15 mm
[6]; [8]
  IC50: 93 nM

## CCN(CC)CCNc1ccc2c3c(nn2C)-c2ccccc2C(=O)c13 [Example 10, 5-[[2-[Diethylamino)ethyl]amino]-2-methylanthra[1,9-cd]pyrazol-6(2H)-one]
[1]; Dose 0.5 mg/ml
  zone of inhibition at 500 µg/mL: 16 mm
[2]
  zone of inhibition at 500 µg/mL: 17 mm
[3]
  zone of inhibition at 100 µg/mL: 15 mm
[4]
  zone of inhibition at 1000 µg/mL: 16 mm
[5]
  zone of inhibition at 3000 µg/mL: 15 mm
[6]; [8]
  IC50: 410 nM

## CCN(CC)CCNc1ccc2c3c(nn2CCN(CC)CC)-c2ccccc2C(=O)c13 [Example 1]
[1]
  zone of inhibition at 3000 µg/mL: 19 mm
[2]
  zone of inhibition at 500 µg/mL: 19 mm
[3]
  zone of inhibition at 100 µg/mL: 15 mm
[4]
  zone of inhibition at 500 µg/mL: 14 mm
[5]
  zone of inhibition at 1000 µg/mL: 15 mm
[6]; [8]
  IC50: 140 nM

## CNCCn1nc2c3c(c(NCCNCCO)ccc31)C(=O)c1c(O)ccc(O)c1-2 [Example 93, 7,10-Dihydroxy-5-[[2-[(2-hydroxyethyl)amino]ethyl]amino]-2-[2-(methylamino)ethyl]anthra[1,9-cd]pyrazol-6(2H)-one]
[6]; [9]
  IC50: 230 nM
[7]
  response vs control in vivo at 12.5 mg/kg: 147%

## CCN(CC)CCCCCCCNc1ccc2c3c(nn2CCN(CC)CC)-c2ccccc2C(=O)c13 [Example 6]
[1]
  zone of inhibition at 1000 µg/mL: 14 mm
[2]; Dose 3.0 mg/ml
  zone of inhibition at 3000 µg/mL: 0 mm
[3]; Dose 0.5 mg/ml
  zone of inhibition at 500 µg/mL: 17 mm
[4]
  zone of inhibition at 3000 µg/mL: 14 mm
[5]
  zone of inhibition at 1000 µg/mL: 14 mm
[6]; [8]
  IC50: 2200 nM

## CCN(CC)CCNc1cccc2c1C(=O)c1cccc3c1c-2nn3CCN(CC)CC [Example 80, 2-[2-(Diethylamino)ethyl]-7-[[2-(diethylamino)ethyi]amino]anthra[1,9-cd]pyrazol-6(2H)-one]
[1]
  zone of inhibition at 1000 µg/mL: 16 mm
[2]
  zone of inhibition at 500 µg/mL: 16 mm
[3]
  zone of inhibition at 100 µg/mL: 19 mm
[4]
  zone of inhibition at 500 µg/mL: 15 mm
[5]
  zone of inhibition at 500 µg/mL: 14 mm
[6]; [8]
  IC50: 220 nM

## Cn1nc2c3c(c(NCCNCCO)ccc31)C(=O)c1c(O)ccc(O)c1-2 [Example 41, 7,10-Dihydroxy-5-[[2-[(2-hydroxyethyl)amino]ethyl]amino]-2-methylanthra[1,9-cd]pyrazol-6(2H)-one]
[6]; [8]
  IC50: 790 nM
[7]
  response vs control in vivo at 3.12 mg/kg: 138%
  response vs control in vivo at 12.5 mg/kg: 140%
  response vs control in vivo at 25 mg/kg: 150%
  response vs control in vivo at 50 mg/kg: 162%
[7]; P388, Dose 100 mg/kg intraperitoneally
  response vs control in vivo at 100 mg/kg: 174%

## CNc1ccc2c3c(nn2CCNCCO)-c2ccccc2C(=O)c13 [Example 26, 2-[2-[(2-Hydroxyethyl)amino]ethyl]-5-(methylamino)anthra[1,9-cd]pyrazol-6(2H)-one]
[1]
  zone of inhibition at 3000 µg/mL: 0 mm
[2]
  zone of inhibition at 100 µg/mL: 15 mm
[3]
  zone of inhibition at 100 µg/mL: 14 mm
[4]
  zone of inhibition at 500 µg/mL: 15 mm
[5]
  zone of inhibition at 500 µg/mL: 14 mm
[6]; [8]
  IC50: 280 nM

## NCCCn1nc2c3c(c(NCCNCCO)ccc31)C(=O)c1c(O)ccc(O)c1-2 [Example 90, 2-(3-Aminopropyl)-7,10-dihydroxy-5-[[2-[(2-hydroxyethyl)amino]ethyl]amino]anthra[1,9-cd]pyrazol-6(2H)-one]
[1]
  zone of inhibition at 3000 µg/mL: 0 mm
[3]
  zone of inhibition at 3000 µg/mL: 16 mm
[4]
  zone of inhibition at 3000 µg/mL: 0 mm
[6]; [9]
  IC50: 770 nM
[7]
  response vs control in vivo at 25 mg/kg: 285%
  response vs control in vivo at 50 mg/kg: 285%

## O=C1c2c(O)cccc2-c2nn(CCNCCO)c3ccc(NCCNCCO)c1c23
[6]; [9]
  IC50: 61 nM

## CN(C)CCNCCNc1ccc2c3c(nn2CCN)-c2c(O)ccc(O)c2C(=O)c13 [Example 74, 2-[2-Aminoethyl)-5-[[2-[[2-(dimethylamino)ethyl]amino]ethyl]amino]-7,10-dihydroxyanthra[1,9-cd]pyrazol-6(2H)-one]
[1]
  zone of inhibition at 3000 µg/mL: 0 mm
[3]
  zone of inhibition at 3000 µg/mL: 16 mm
[4]
  zone of inhibition at 3000 µg/mL: 0 mm
[6]; [9]
  IC50: 1200 nM
[7]
  response vs control in vivo at 12.5 mg/kg: 186%
  response vs control in vivo at 25 mg/kg: 192%
  response vs control in vivo at 50 mg/kg: 220%

## CN(C)CCNc1ccc2c3c(nn2CCO)-c2c(O)ccc(O)c2C(=O)c13 [7,10-(OH)2; (CH2)2OH·HCl; NH(CH2)2NMe2]
[6]; [9]
  IC50: 170 nM
